Like-named read-outs stand apart in the source and are kept apart here.

For assay [1], the target named is T1, human mGlu5 (Homo sapiens, UniProt P41594). As to the kind of experiment: Radioligand displacement assay (radiolabeled MPEP) on membranes of HEK293 cells stably expressing mGlu5. The note with it: for Inhibition at 30 µM: Table S1, radioligand displacement at 30 µM. (Loss of bound radioactivity is the signal in a displacement assay; it reports binding, not function.)
Experimental: Treated cells were harvested with PBS/2 mM EDTA and washed three times with ice-cold PBS and frozen at −80 °C. The frozen cell pellet was resuspended in membrane buffer (25 mM Tris/7.4, 250 mM sucrose, 2.5 mM EDTA, 2 ug/ml aprotinin, 0.5 ug/ml leupeptin and 200 nM PMSF) and homogenized with a polytron 20–30 s at maximum power. After centrifugation at 18,000 RPM for 30 min at 4 °C, the pellet was resuspended in ice-cold membrane buffer, hand-homogenized, and centrifuged as described above. This pellet was further resuspended in ice-cold membrane buffer. The protein content was measured using the Bradford method with bovine serum albumin as the standard. The membrane homogenate was frozen at −80 °C before use. After thawing, the membranes were washed once and resuspended in ice-cold 50 mM Tris–HCl, 0.9% NaCl, pH 7.4 buffer. All incubations were performed at room temperature. For the displacement binding experiments, 15 μg of membranes were incubated with 5 nM the radioligand in the presence of 10 varying concentrations of the test compound for 2 h at room temperature with shaking. At the end of the respective incubations, the suspension was filtered onto PerkinElmer GF/C glass fiber filters (1450–421) pre-soaked in 0.5% polyethyleneimine and washed rapidly four times using a Tomtec Harvester 96 Mach III cell harvester (Tomtec, Hamden, CT) with 5 mL of cold wash buffer (50 mM Tris–HCl, pH 7.4). The radioactivity trapped on the filters was measured after heat sealing the filters with MeltiLexTM A (PerkinElmer, 1450–441) in a 1450 MicroBeta TriLux counter (PerkinElmer). […] IC50 values were derived from the inhibition curve, and Ki values were calculated according to the Cheng-Prusoff equation of Ki = IC50/(1 + [L]/Kd),[61] where [L] is the concentration of radioligand and Kd is its dissociation constant at the receptor, derived from the saturation isotherm.

Assay [2] addresses T1, human mGlu5. As to the kind of experiment: IP1 functional assay, quisqualate-stimulated HEK293 cells expressing mGlu5. The class given is cell-based. Details: expressed in transfected cells; host or cells: HEK293 cells, transient electroporation; glutamate transporter EAAC1 co-transfected. As to conditions: for functional activity in IP1 assay: agonist (quisqualate)-induced mGlu5-dependent IP1 production. As for the experimental part:
Figure 3 Evaluation of compounds F1 and F2 in functional assays. Representative dose–response curve of compounds (a) F1 and (b) F2 in an IP1 functional assay. […] Each point was performed in triplicate and is shown as a mean ± SEM of 3–5 independent experiments.
HEK293 cells were cultured in Dulbecco’s modified Eagle’s medium (DMEM) supplemented with 10% fetal bovine serum (FBS) and were maintained at 37 °C in a humidified atmosphere with 5% CO2. Transient transfection was performed using electroporation in a volume of […] with […] of plasmid encoding SNAP-tag human mGlu5, […] plasmid encoding for the glutamate transporter EAAC1 plasmids, and 10 million of HEK293 cells in electroporation buffer (50 mM K2HPO4, 20 mM CH3COOK, and 20 mM KOH, pH 7.4). After electroporation (250 V, 0.5 mF, Bio–Rad Gene Pulser electroporator; Bio-Rad Laboratories, Hercules, CA), cells were resuspended in 10 mL of DMEM supplemented with 10% FBS and seeded for 24 h into black, clear-bottom 96-well culture plates (Greiner Bio-one), pretreated with Poly-L-Ornithine 1X, at a density of 100,000 cells per well. Following 24 h of transfection, HEK293 cells were incubated for 2 h with glutamate-free DMEM GlutaMAX-I (Life Technologies). The IP1 accumulation assay kit (Cisbio Bioassays, PerkinElmer) was used for the direct quantitative measurement of IP1. Cells were stimulated by quisqualate at EC80 alone and with various concentrations of allosteric compounds, incubated for 30 min at 37 °C, 5% CO2. Cells were then lysed using the conjugate-lysis buffer mixed with the d2-labeled IP1 analogue and the Lumi4-terbium cryptate-labeled anti-IP1 antibody according to the manufacturer’s instructions. After a 1 h incubation at room temperature, the HTRF measurement was performed after excitation at 337 nm with 50 μs delay. Terbium cryptate fluorescence and tr-FRET signals were measured at 620 and 665 nm, respectively, using a PheraStar fluorimeter (BMG Labtech).

Setting [3] is: radioligand displacement, mean ± SEM of two experiments.
[4] abbreviates: quisqualate 50 nM, mean ± SEM of 3–5 independent experiments, read-out: pIC50 (converted).
The mark [5] stands for this setting: analogues of F1, read-out: IC50.

T1 sequence (P41594 21-1212): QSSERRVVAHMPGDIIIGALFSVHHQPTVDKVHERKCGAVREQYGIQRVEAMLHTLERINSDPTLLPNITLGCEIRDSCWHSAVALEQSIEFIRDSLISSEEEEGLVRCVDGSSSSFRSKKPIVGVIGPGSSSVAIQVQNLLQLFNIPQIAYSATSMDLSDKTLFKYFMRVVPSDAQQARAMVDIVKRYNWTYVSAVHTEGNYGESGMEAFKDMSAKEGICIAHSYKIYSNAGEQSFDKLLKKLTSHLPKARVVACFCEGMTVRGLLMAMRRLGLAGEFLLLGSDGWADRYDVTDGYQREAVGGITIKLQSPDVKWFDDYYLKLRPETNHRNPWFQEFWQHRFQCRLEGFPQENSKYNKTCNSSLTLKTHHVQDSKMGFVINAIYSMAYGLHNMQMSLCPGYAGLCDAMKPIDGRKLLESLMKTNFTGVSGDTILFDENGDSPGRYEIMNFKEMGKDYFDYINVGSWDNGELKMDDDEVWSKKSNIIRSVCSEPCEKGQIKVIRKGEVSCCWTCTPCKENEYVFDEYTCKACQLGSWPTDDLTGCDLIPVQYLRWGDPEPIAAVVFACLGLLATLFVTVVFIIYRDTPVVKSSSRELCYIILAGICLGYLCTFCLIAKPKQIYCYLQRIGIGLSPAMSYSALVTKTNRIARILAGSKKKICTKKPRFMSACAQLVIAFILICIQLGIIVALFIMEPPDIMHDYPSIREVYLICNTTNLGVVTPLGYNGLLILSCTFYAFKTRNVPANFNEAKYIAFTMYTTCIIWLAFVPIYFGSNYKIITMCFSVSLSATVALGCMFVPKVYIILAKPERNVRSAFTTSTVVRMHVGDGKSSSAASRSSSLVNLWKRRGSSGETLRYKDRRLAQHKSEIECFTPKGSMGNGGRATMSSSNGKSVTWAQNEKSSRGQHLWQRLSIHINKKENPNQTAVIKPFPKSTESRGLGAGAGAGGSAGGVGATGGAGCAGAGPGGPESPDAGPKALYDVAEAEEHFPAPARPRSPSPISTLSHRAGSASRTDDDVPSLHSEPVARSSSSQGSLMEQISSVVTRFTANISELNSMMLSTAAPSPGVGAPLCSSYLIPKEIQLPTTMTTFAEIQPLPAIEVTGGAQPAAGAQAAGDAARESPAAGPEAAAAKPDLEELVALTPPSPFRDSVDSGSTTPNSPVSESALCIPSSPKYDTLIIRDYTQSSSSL

The compound `COc1cccc(CNc2cccc(C#N)c2)c1` [F1] returned a Ki at human mGlu5 [1] (setting [3]) of 430 ± 10 nM. Moreover, on human mGlu5 [2], the “functional activity in IP1 assay” value is recorded as “acted as NAMs”. Besides, the IC50 at human mGlu5 [2] (setting [4]) is 6310 nM.
On to `COCc1cccc(/C=C/c2cccc(C)n2)c1` [F2], for which the inhibition constant Ki was found to be 920 ± 120 nM at human mGlu5 [1] (setting [3]) and 550 nM at human mGlu5 [1] (resynthesized pure sample of F2, new binding assays). The “functional activity in IP1 assay” value on human mGlu5 [2] was “acted as NAMs”. On human mGlu5 [2] (setting [4]), the IC50 is 7940 nM.
As to `N#Cc1cccc(NCc2ccccc2)c1` [FA1], at human mGlu5 [2], the “functional activity in IP1 assay” value is “inactive”. For the same compound, on human mGlu5 [2] (setting [5]), the IC50 is over 100000 nM.
Turning to `COc1cccc(CNc2ccccc2)c1` [FA2], the “functional activity in IP1 assay” value at human mGlu5 [2] is “inactive”. In addition, on human mGlu5 [2] (setting [5]), the IC50 is over 100000 nM.
`Cc1cnn(CC2CCCCN2C(=O)c2cc(-c3ccco3)on2)c1` (stereo not shown) [L1] registered a Ki on human mGlu5 [1] (setting [3]) of 990 ± 150 nM. Further, on human mGlu5 [2], the “functional activity in IP1 assay” value is “negatively modulated”.
`Cn1c(SCc2noc(-c3ccoc3)n2)nnc1-c1ccco1` [L2] had a Ki at human mGlu5 [1] (setting [3]) of 1100 ± 100 nM. Also, the “functional activity in IP1 assay” value on human mGlu5 [2] is “negatively modulated”.
For `O=C(COc1ccccc1)NCc1cc(-c2ccc(F)cc2)on1` [L50], the “Inhibition at 30 µM” value on human mGlu5 [1] (mean ± SEM of two experiments) is listed as 20 ± 1%.
Take `Cc1ccc(C(=O)Nc2cccc(NC(=O)c3ccncc3)c2)s1` [L51]: the “Inhibition at 30 µM” value at human mGlu5 [1] (mean ± SEM of two experiments) amounted to 20 ± 6%.
For the compound `CCN(Cc1nc(-c2ccncc2)no1)c1ccccc1` [L52], the “Inhibition at 30 µM” value on human mGlu5 [1] (mean ± SEM of two experiments) amounted to 20 ± 1%.
Still for that read-out and setting: the figure for `CC(NC(=O)c1cccc(F)c1)c1ccc(-n2cncn2)cc1` (stereo not shown) [L53] is 19 ± 2%; for `Cc1ccc(CNC(=O)c2ccn(COc3ccc(F)cc3)n2)o1` [L54] it is 18 ± 3%.
Regarding `O=C(CSc1ccccc1)N1CC(OCc2cccc(F)c2)C1` [L55], on human mGlu5 [1] (mean ± SEM of two experiments), the “Inhibition at 30 µM” value stood at 18 ± 3%.
In the case of `O=C(Nc1ccc(F)c(F)c1)C1(c2cc(-c3ccco3)on2)CC1` [L56], at human mGlu5 [1] (mean ± SEM of two experiments), the “Inhibition at 30 µM” value is given as 18 ± 6%.
As for `O=C(COc1ccc2ccccc2c1)N1CC(c2nc(C3CC3)no2)C1` [L57], at human mGlu5 [1] (mean ± SEM of two experiments), the “Inhibition at 30 µM” value worked out at 17 ± 2%.
Take `CCOc1ccc(C(=O)N2CC(OCc3ccc(F)cc3)C2)cc1` [L58]: the “Inhibition at 30 µM” value on human mGlu5 [1] (mean ± SEM of two experiments) is recorded as 16 ± 2%.
Same read-out and setting: the same measure for `Cc1ccc(OCC(=O)N2CC(c3nc(-c4ccco4)no3)C2)cc1` [L59]: 15 ± 1%.

As usually defined, the Ki is a dissociation constant, usually derived from enzyme kinetics or from competition with a known ligand. What is called Inhibition is the change of the read-out against control, counted positive when it falls. Low values mean a response near the control, high ones a response far below the control.

For the origin of these results see article PMC9594040, “Structure-Based Discovery of Negative Allosteric Modulators of the Metabotropic Glutamate Receptor 5” (ACS Chemical Biology, 2022).
